Assay results from ChEMBL document CHEMBL1201862, “PubChem BioAssay data set” (2004).
Activity calls are given as the source filed them.

Experiments:
[1] = target: T1, Nucleotide-binding oligomerization domain-containing protein 2 (Homo sapiens, UniProt Q9HC29); assay: PubChem AID 2334; type: functional
Cysteine protease ATG4B = target: T2, Cysteine protease ATG4B (Homo sapiens, UniProt Q9Y4P1); type: functional;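 further: Fluorescence-based dose-response confirmation assay measuring inhibition of ATG4B activity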
T2 sequence (Q9Y4P1 whole entry): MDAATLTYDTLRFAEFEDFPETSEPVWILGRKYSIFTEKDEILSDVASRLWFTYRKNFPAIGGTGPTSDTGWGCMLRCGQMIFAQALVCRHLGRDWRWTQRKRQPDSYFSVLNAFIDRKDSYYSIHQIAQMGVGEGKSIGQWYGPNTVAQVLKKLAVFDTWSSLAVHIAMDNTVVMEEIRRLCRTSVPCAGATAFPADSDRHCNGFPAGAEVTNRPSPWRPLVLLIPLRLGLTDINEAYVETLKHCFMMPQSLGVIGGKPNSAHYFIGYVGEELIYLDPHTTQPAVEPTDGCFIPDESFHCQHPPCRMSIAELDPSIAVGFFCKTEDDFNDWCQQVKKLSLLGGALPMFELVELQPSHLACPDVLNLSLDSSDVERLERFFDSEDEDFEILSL

[2] = target: T3, Short transient receptor potential channel 4 (Mus musculus, UniProt Q9QUQ5); assay: block of DAMGO-driven TRPC4 calcium entry – cell-based, HEK293 TRPC4/mu-opioid, Fluo-4 calcium, dose response (AID 434942); type: functional;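 further: potency of inhibitors blocking the TRPC4 calcium response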
T3 sequence (Q9QUQ5 whole entry): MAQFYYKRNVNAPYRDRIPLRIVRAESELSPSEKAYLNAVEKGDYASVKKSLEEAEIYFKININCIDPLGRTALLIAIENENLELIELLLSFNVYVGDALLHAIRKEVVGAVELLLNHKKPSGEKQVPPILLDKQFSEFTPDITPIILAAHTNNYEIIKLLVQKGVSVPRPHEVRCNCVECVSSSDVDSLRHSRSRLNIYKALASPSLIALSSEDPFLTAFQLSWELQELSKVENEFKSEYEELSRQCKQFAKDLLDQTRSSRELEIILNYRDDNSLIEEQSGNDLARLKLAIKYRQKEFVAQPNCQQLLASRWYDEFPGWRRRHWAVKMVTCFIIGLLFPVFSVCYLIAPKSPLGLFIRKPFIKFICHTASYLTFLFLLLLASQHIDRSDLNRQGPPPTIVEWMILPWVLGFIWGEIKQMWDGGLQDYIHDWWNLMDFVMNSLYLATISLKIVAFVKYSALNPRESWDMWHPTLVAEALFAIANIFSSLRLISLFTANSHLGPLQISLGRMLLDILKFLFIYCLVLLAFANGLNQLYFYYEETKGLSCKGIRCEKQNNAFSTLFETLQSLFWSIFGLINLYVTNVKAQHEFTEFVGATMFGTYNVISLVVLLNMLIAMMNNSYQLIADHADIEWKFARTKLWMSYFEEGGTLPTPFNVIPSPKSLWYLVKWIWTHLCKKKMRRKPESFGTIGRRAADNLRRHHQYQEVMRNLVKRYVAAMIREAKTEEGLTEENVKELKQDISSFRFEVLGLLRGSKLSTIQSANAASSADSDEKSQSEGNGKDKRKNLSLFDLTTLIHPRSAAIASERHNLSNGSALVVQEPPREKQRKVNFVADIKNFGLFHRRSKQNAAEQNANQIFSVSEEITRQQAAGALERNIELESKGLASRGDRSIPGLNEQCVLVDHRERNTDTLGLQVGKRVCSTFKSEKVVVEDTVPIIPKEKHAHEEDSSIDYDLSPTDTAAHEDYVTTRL

Tumor necrosis factor = Tumor necrosis factor (Homo sapiens, UniProt P01375); assay: analog potency on TNFa NF-kB signaling – cell-based, revised, SAR follow-up (AID 2337); type: functional
Phospholipase A2 = Phospholipase A2 (Homo sapiens, UniProt P04054); type: functional;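 further: confirmatory dose-response counterscreen on phospholipase A2, testing hits that came from an ultra-high-throughput screen for ATG4B inhibitors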
[3] = target: Nucleotide-binding oligomerization domain-containing protein 1 (Homo sapiens, UniProt Q9Y239); assay: blockers of NOD1 pathway activity – revised, SAR follow-up (AID 2333); type: functional
[4] = target: T1, Nucleotide-binding oligomerization domain-containing protein 2; assay: inhibition of NOD2-driven NF-kB reporter – cell-based, luminescence, uHTS, HEK293 (AID 1566); type: functional
[5] = target: Voltage-gated N-type calcium channel alpha-1B subunit/Amyloid beta A4 precursor protein-binding family A member 1 (Homo sapiens, UniProt Q00975+Q02410); assay: disruptors of Mint-PDZ/N-type channel peptide interaction – biochemical, HTRF, set 2, SAR follow-up (AID 434980); type: functional
[6] = target: DNA dC->dU-editing enzyme APOBEC-3G (Homo sapiens, UniProt Q9HC16); assay: Dose Response confirmation of small molecule APOBEC3G DNA Deaminase Inhibitors via a fluorescence-based single-stranded DNA deaminase assay. [Related pubchem assays (depositor defined):AID493012, AID493028]; type: functional
[7] = target: DNA dC->dU-editing enzyme APOBEC-3A (Homo sapiens, UniProt P31941); assay: A3A deaminase inhibition for selectivity – biochemical, dose response (AID 504722); type: functional
[8] = Cytotoxicity screening for potential Inhibitors of Bacterial Capsule Biogenesis. [Related pubchem assays (depositor defined):AID488970]; type: functional
Cytochrome P450 2C9 = Cytochrome P450 2C9 (Homo sapiens, UniProt P11712)
[9] = target: Intestinal-type alkaline phosphatase (Homo sapiens, UniProt P09923); assay: Dose Response confirmation of uHTS hits from a small molecule inhibitors of human intestinal alkaline phosphatase via a luminescent assay. [Related pubchem assays (depositor defined):AID2544, AID2574]; type: functional
Cytochrome P450 2D6 = Cytochrome P450 2D6 (Homo sapiens, UniProt P10635);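 further: CYP2D6 member of a cytochrome P450 panel assay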
Cytochrome P450 2C19 = Cytochrome P450 2C19 (Homo sapiens, UniProt P33261); assay: Cytochrome panel assay with activity outcomes. Panel member name: p450-cyp2c19 Compounds with AC50 equal or less than 10 uM are considered active; type: functional; settings: read-out: AC50
[10] = NIH/3T3 cell viability loss – mouse embryonic fibroblasts, dry powder, set 2, cytotoxicity control, dose response (AID 493247); type: functional, cell-based; settings: Fibroblast
[11] = target: G-protein coupled receptor 55 (Homo sapiens, UniProt Q9Y2T6); assay: blockers of GPR55 signalling, imaged – imaging, image-based, counter-screen for GPR35 antagonist project, SAR follow-up (AID 2397); type: functional
[12] = NIH3T3 cell viability loss – ATP luminescence, mouse fibroblasts, counter-screen, dose response (AID 2010); type: functional, cell-based;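 further: cells exposed to compound for about 90 hours before reading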
[13] = Trypanosoma cruzi growth suppression in host cells – NIH3T3 host cells, beta-gal luminescence, confirmation (AID 2044); type: functional, cell-based;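 further: intracellular parasites grown in NIH/3T3 mouse fibroblasts as host cells; luminescent beta-galactosidase reporter signal from transgenic T. cruzi replicating inside host cells; inhibitors lower the luminescence signal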
[14] = target: T4, G-protein coupled receptor 35 (Homo sapiens, UniProt Q9HC97); assay: SAR Analysis for the identification of Selective Antagonists of ERK1/2 Activity in GPR35-Overexpressing U2OS Cells. [Related pubchem assays: 2079, 2058 ]; type: functional, cell-based
[15] = target: T4, G-protein coupled receptor 35; assay: inhibition of zaprinast-stimulated GPR35 beta-arrestin translocation – imaging, U2OS, beta-arrestin-GFP, zaprinast agonist, primary screen (AID 2058); type: functional;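 further: antagonist potency meaning inhibition of agonist-induced arrestin redistribution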

T4 sequence (Q9HC97 whole entry): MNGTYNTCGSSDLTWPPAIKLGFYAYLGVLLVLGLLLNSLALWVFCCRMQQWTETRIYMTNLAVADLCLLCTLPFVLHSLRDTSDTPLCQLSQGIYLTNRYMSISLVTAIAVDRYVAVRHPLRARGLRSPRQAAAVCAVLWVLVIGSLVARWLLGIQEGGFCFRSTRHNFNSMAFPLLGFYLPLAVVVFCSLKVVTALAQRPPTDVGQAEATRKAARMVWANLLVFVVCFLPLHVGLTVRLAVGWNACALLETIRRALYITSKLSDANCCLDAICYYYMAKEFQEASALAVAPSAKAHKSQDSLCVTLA
T1 sequence (Q9HC29 whole entry, the tested form may be a part): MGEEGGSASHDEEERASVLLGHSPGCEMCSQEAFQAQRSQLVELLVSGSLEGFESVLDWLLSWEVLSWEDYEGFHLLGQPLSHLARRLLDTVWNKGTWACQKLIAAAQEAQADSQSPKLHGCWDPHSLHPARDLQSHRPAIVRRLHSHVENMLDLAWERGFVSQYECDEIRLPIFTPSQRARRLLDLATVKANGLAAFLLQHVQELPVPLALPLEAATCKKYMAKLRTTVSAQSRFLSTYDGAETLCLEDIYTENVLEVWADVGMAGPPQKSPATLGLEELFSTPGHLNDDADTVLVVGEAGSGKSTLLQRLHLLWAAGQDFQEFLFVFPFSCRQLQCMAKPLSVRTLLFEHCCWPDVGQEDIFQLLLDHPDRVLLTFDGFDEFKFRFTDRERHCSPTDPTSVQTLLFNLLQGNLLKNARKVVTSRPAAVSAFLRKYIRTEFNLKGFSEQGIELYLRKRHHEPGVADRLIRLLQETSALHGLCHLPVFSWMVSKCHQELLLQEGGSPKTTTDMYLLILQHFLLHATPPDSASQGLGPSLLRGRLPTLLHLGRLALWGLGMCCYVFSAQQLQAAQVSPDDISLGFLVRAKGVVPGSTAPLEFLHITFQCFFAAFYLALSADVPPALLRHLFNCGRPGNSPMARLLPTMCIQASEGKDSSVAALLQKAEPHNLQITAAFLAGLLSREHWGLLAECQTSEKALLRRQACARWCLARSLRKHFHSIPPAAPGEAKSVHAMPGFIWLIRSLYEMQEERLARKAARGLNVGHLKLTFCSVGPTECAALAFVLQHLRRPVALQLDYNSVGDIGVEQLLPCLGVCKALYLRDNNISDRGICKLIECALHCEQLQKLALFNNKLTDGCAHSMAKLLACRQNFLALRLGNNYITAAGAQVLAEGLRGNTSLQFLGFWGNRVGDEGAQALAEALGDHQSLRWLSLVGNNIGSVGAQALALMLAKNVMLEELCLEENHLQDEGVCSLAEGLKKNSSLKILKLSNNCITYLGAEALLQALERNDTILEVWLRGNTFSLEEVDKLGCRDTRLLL
Nucleotide-binding oligomerization domain-containing protein 1, sequence (Q9Y239 whole entry, the tested form may be a part): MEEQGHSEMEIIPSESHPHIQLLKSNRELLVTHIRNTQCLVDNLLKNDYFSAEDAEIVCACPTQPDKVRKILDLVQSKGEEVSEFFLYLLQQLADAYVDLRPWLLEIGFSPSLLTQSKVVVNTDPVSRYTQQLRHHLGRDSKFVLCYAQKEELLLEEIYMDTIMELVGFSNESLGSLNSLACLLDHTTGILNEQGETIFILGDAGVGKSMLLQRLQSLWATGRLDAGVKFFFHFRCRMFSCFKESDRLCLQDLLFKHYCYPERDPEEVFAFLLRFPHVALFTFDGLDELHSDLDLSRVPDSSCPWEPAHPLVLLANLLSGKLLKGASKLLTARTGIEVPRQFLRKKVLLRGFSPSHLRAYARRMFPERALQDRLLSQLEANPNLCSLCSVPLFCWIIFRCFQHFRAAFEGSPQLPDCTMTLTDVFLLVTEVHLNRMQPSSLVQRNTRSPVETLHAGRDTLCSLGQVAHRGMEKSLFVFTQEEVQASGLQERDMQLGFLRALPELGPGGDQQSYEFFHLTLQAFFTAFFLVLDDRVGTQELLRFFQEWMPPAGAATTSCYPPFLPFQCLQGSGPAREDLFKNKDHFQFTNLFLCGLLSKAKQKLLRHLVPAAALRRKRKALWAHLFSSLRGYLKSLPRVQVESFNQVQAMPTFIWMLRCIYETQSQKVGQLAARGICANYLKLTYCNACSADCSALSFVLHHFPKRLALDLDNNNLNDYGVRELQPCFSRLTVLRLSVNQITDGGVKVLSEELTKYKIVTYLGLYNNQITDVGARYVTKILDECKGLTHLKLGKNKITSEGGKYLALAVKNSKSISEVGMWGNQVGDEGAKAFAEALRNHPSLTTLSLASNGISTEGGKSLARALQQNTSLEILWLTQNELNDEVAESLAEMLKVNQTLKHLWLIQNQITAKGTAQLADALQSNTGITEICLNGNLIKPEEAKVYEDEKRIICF
DNA dC->dU-editing enzyme APOBEC-3A, sequence (P31941 whole entry): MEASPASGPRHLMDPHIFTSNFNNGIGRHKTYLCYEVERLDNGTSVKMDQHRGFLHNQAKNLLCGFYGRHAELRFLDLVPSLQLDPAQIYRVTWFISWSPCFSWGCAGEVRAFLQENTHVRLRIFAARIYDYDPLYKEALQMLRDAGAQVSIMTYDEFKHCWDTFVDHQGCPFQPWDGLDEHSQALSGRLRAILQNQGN
Phospholipase A2, sequence (P04054 whole entry, the tested form may be a part): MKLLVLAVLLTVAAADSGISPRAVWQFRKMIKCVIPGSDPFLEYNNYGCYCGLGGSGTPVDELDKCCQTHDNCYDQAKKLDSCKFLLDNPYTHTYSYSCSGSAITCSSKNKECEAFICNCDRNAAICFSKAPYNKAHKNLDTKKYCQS
Cytochrome P450 2D6, sequence (P10635 whole entry): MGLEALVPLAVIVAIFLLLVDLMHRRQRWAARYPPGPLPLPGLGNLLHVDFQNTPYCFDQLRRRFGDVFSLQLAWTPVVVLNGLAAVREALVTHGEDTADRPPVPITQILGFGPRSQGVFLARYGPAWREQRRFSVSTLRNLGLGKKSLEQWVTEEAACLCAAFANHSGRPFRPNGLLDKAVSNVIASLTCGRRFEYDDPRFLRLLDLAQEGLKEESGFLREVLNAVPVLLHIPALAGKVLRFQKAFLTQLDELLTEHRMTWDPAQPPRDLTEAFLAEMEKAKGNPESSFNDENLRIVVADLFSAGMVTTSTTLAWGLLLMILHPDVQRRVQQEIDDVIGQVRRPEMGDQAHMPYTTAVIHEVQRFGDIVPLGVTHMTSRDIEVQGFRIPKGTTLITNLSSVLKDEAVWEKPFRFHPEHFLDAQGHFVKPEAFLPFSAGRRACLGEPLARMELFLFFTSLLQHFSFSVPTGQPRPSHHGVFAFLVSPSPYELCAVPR
G-protein coupled receptor 55, sequence (Q9Y2T6 whole entry): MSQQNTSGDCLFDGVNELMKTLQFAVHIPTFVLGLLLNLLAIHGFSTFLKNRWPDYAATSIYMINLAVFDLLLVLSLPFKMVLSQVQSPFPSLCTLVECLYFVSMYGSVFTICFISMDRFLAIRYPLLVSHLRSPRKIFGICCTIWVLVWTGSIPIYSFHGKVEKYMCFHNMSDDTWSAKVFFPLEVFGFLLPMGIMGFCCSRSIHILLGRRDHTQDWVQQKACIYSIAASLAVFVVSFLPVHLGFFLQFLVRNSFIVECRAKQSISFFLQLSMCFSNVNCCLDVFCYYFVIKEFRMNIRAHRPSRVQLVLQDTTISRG
Tumor necrosis factor, sequence (P01375 whole entry): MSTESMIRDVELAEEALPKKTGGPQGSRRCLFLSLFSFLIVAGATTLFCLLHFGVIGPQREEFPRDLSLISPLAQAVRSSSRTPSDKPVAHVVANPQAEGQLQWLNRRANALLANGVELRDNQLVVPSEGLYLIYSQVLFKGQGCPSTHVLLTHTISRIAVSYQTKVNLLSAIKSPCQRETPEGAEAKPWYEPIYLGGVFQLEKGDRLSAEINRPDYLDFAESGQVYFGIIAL
DNA dC->dU-editing enzyme APOBEC-3G, sequence (Q9HC16 whole entry): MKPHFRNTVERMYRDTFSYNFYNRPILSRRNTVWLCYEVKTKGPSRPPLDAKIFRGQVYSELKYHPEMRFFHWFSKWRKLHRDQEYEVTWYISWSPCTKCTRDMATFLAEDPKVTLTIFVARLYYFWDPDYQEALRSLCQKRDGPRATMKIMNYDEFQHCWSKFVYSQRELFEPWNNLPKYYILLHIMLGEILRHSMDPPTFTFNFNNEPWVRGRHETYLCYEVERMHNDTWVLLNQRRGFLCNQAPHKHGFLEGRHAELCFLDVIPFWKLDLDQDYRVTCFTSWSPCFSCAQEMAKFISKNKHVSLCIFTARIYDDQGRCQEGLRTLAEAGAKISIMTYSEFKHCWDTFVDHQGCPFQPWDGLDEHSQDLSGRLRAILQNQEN
Cytochrome P450 2C19, sequence (P33261 whole entry): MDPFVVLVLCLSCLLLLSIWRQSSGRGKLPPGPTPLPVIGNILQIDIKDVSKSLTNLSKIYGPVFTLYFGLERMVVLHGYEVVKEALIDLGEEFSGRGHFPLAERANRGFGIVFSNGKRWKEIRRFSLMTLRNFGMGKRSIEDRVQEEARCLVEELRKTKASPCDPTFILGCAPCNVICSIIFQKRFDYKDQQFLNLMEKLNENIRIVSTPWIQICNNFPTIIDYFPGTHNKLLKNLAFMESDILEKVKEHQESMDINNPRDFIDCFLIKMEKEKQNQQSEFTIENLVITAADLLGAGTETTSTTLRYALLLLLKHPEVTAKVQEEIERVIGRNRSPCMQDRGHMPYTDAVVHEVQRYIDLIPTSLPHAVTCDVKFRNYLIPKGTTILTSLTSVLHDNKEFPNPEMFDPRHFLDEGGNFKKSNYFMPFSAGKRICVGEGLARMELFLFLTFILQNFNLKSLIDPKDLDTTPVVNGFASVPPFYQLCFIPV

Cc1ccc(CSc2nc(-c3ccccc3)c(C#N)c(=O)[nH]2)cc1
IC50 [1]: 6.9 µM (active) | IC50 (Cysteine protease ATG4B): 7.62 µM (active) | EC50 [2]: 5.31 µM (active) | IC50 (Tumor necrosis factor): 8.2 µM (active) | IC50 (Phospholipase A2): 21.2 µM (inactive) | IC50 [3]: 5.5 µM (active) | EC50 [4]: 13.2 µM (active)

O=C(c1cc(-c2ccco2)nc2ccccc12)N1CCC(N2CCOCC2)CC1
IC50 [5]: > 56.8 µM (inactive)

Sc1nnc(-c2ccc(Cl)cc2)n1CC1CCCO1 (stereo unspecified)
IC50 [6]: 6.14 µM (active) | IC50 [7]: > 100 µM (inactive)

C=CCOc1ccc(C2c3c(oc4ccccc4c3=O)C(=O)N2CCCN2CCOCC2)cc1 (stereo unspecified)
CC50 [8]: > 100 µM (active)

O=c1c2c(-c3cccs3)csc2ncn1-c1ccc(Br)cc1
AC50 (Cytochrome P450 2C9): 3.98 µM (inconclusive) | IC50 [9]: > 100 µM (inactive) | AC50 (Cytochrome P450 2D6): 3.55 µM (inconclusive) | AC50 (Cytochrome P450 2C19): 2.24 µM (inconclusive)

COc1cc2c(cc1OC)CN(C(=O)C1CCCN(Cc3ccccc3)C1)CC2 (stereo unspecified)
AC50 [10]: 52.7 µM (active)

Cc1ccc(Cn2ncc3c(N4CCN(c5ccccc5C)CC4)ncnc32)cc1
IC50 [11]: > 32 µM (inactive) | EC50 [12]: > 60 µM (not active) | EC50 [13]: 1.6 µM (active) | IC50 [14]: 17.7 µM (not active) | IC50 [15]: 0.761 µM (active)
